As a reminder, the MIC is the smallest concentration in the dilution series that meets the test's criterion for growth inhibition.

The test system of one data set is S. aureus ATCC 29213. Kind of data set: Broth microdilution MIC (NCCLS). Format: cell-based. The settings on record: Staphylococcus aureus, ATCC29213; S. aureus ATCC 29213; Mueller-Hinton broth, 24 h at 35° C.; read-out: MIC. An outline of the steps: (§1)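 MIC = lowest drug concentration with no bacterial growth, read at 650 nm and visually after 24 h at 35° C. Assay run in MHB per NCCLS, inoculum 5×10^5 CFU/mL, compounds serially diluted 2-fold in plate.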
(In broth dilution the organism is exposed to a series of concentrations in liquid medium.)

The test system of data set [1] is S. aureus Col (Meth^R)(lac^−). Kind of data set: Broth microdilution MIC (NCCLS). Format: cell-based. The settings on record: Staphylococcus aureus. An outline of the steps: as §1
A further data set concerns human serum proteins. The data set is described as follows: Serum binding determination by ultrafiltration/HPLC. Format: in vitro ADME. The settings on record: by HPLC. As to the method: The more accurate measurement of binding of selected cephalosporin compounds was performed using HPLC as described below.
1. Serum is placed in a shaking water bath preheated to 37±2° C. for 5 to 10 minutes to heat serum to 37° C. Serum pH is measured and recorded, while serum is 37° C. using pH paper. Measurements are taken twice, 3 minutes apart. If the pH is not 7.4±0.4 then the pH is adjusted by blowing 5% CO2/95% O2 over the serum. After blowing for several minutes, serum is heated to 37° C. and measurements are taken twice, 3 minutes apart using pH paper to determine the pH. Store at 4° C. The serum is stable for 7 days. Always check the pH before each use.
2. Before any centrifugation, the centrifuge temperature must be adjusted to 25±2° C. Preheat the centrifuge by spinning for 45 minutes at the same speed to be used in the assay (1900 g) with two tubes of water in the rotor and the temperature set to 25° C. When the centrifuge stops immediately check the temperature of the tubes of water with a calibrated thermometer. The temperature of the tubes of water must be 25±2° C. […] Continue spinning and measuring the temperature and adjusting the setting until the temperature is 25±2° C.
3. Prepare blank ultrafiltrate by pipetting blank pH 7.4 serum into an Amicon Centrifree Micropartition devices, centrifuge: fixed angle rotor, 1900 g, 25° C. for 20 minutes. Heat ultrafiltrate in a shaking water bath preheated to 37° C. Measure ultrafiltrate pH and adjust to the pH of the serum (7.4±0.2).
4. Pipette 190 ul of blank ultrafiltrate into a set of labeled 1.7 mL polypropylene microfuge tubes for 3 of each level. Pipette 10 μL of the appropriate standard stock 50, 200, 1000 μg/mL to make standards 2.5, 10, and 50 μg/mL respectively. Vortex each tube well. One set of the standard samples are mixed 1:1 with 0.2 M acetic acid and injected onto the HPLC (MSTD). These samples are the membrane standards and will be used to compare to the other standards. Pipette 190 ul of ultrafiltrate and spike with 10 ul of whatever solution (e.g. water) the standards are prepared in to make the zero standard.
5. Pipette 475 μL of blank heated pH 7.4 serum into a set of labeled 1.7 mL polypropylene microfuge tubes for 2 of each (Serum A and Serum B). Pipette 25 μL of the 1000 μg/mL standard stock into each tube, vortex each tube well to make serum standard 50 μg/mL. Remove 100 μL of serum and deproteinate with 200 μL 4% TCA while vortexing to make serum time 0 (serum 50, T0). Place serum tubes in a shaking water bath at 37° C. for 10 minutes. Pipet 100 μL of serum out and deproteinate with 200 μL 4% TCA, to make serum time 10 min (serum 50, T10). Pipet 200 ul serum standard 50 μg/mL into an ultrafiltration device, which is not treated with TCA, to determine free drug in samples (Rat Serum 50).
6. Transfer serum and standard samples to labeled Amicon Centrifree Micropartition filters, and centrifuge: 1900 g, 25° C. for 10 minutes. The extracted serum samples (T0 and T10) are spun down and supernatant is loaded into HPLC vials.
7. 100 μL of ultrafiltrate sample and 100 μL of 0.2 M acetic acid were mixed together to stabilize the compound in ultrafiltrate.
8. Transfer entire stabilized ultrafiltrate solution to a labeled autoinjector HPLC vial cap with Teflon septa, and inject on HPLC.
Peak height or area is used in a weighted linear regression.

Data set [2] is described as follows: In vitro stability of compounds in rat serum. It counts as in vitro ADME. To be noted: for Stability in rat serum (% loss): after 60 min exposure to rat serum, 37° C., HPLC; for stability of compounds in rat serum: Table 2 data. As for the experimental part: In general, compounds from the class of 7-acylamino-3-heteroarylthio-3-cephem carboxylic acids have higher chemical reactivity and lower stability towards chemical or enzymatic decomposition than most typical cephalosporins. […] Results shown in Table 2 represent percentage loss of the initial amount of cephalosporin compound upon 60 min incubation in rat serum.
Procedure for measuring degree of degradation of cephalosporin compounds in rat serum was as follows:
Fresh control rat serum (heparinized and stored frozen) is preincubated at 37° C. for 15 min in a shaking water bath. pH is measured using test strips. 25 μL of a 2 mg/mL solution cephalosporin compound (in water) of is then added to each matrix to make 1000 μL. Solutions were incubated at 37° C. 100 ul of solution was taken out at time=0, 15, 30, and 60 min post dose and added 200 μL 4% trichloroacetic acid, vortexed, and centrifuged for 10 min at 14,000 rpm in an Eppendorf microcentrifuge. 25 μL of each supernatant was injected onto HPLC. Experiment was repeated using 25 μL of a 0.2 mg/mL cephalosporin compound. Degradation is measured as the percentage of HPLC peak area at time t relative to peak area at time 0.
HPLC conditions: Beckman Ultrasphere C18 column. 5 u. 4.6 mm×25 cm. 1 mL/min of 95% 0.1 M ammonium acetate, pH 6, 5% ACN going to 75% buffer/organic over 20 min. UV monitored at 254 and 280 nm.

Converted amounts (≈) assume the structure as drawn.

With `NCCSCc1nc(SCCN)sc1SC1=C(C(=O)O)N2C(=O)[C@@H](NC(=O)/C(=N\O)c3nc(N)sc3Cl)[C@H]2SC1` [Cmpd 11, (7R)-7-[(Z)-2-(2-amino-5-chlorothiazol-4-yl)-2-(hydroxyimino)acetamido]-3-[4-(2-aminoethylthiomethyl)-2-aminoethylthio-1,3-thiazol-5-ylthio]-3-cephem-4-carboxylic acid], the minimum inhibitory concentration (MIC) with S. aureus ATCC 29213 was 0.06 µg/mL (≈ 0.0878 µM); in data set [1], 0.5 µg/mL (≈ 0.732 µM). Further, the “Serum Binding human (% of compound bound to serum)” value in the data set with human serum proteins amounted to 83%. Further, the “Stability in rat serum (% loss)” value in data set [2] was determined as 47%.
Regarding `N=C(N)NCCSCc1ncccc1SC1=C(C(=O)O)N2C(=O)[C@@H](NC(=O)/C(=N\O)c3nsc(N)n3)[C@H]2SC1` [Cmpd 14, (7R)-7-[(Z)-2-(5-amino-1,2,4-thiadiazol-3-yl)-2-(hydroxyimino)acetamido]-3-[2-(2-guanidinoethylthiomethyl)pyrid-3-ylthio]-3-cephem-4-carboxylic acid], the “Serum Binding human (% of compound bound to serum)” value with human serum proteins worked out at 60%. In addition, in data set [2], the “stability of compounds in rat serum” value is “improved stability” and the “Stability in rat serum (% loss)” value came to 10%.
For the compound `NCCSCc1cnccc1SC1=C(C(=O)O)N2C(=O)[C@@H](NC(=O)/C(=N\O)c3cccc(N)n3)[C@H]2SC1` [Cmpd 24, (7R)-7-[(Z)-2-(2-aminopyrid-6-yl)-2-(hydroxyimino)acetamido]-3-[3-(2-aminoethylthiomethyl)pyrid-4-ylthio]-3-cephem-4-carboxylic acid], the results for the MIC (with S. aureus ATCC 29213; in data set [1]) were 0.25 µg/mL (≈ 0.445 µM) and 1 µg/mL (≈ 1.78 µM), respectively. Besides, the “Serum Binding human (% of compound bound to serum)” value in the data set on human serum proteins amounted to 88%. The “Stability in rat serum (% loss)” value in data set [2] is 66%.
As for `NCCSCc1ncsc1SC1=C(C(=O)O)N2C(=O)[C@@H](NC(=O)/C(=N\O)c3cccc(N)n3)[C@H]2SC1` [Cmpd 23, (7R)-7-[(Z)-2-(2-aminopyrid-6-yl)-2-(hydroxyimino)acetamido]-3-[4-(2-aminoethylthiomethyl)-1,3-thiazol-5-ylthio]-3-cephem-4-carboxylic acid], in the data set on S. aureus ATCC 29213, the minimal inhibitory concentration (MIC) came to 0.13 µg/mL (≈ 0.229 µM). The same compound had an MIC in data set [1] of 1 µg/mL (≈ 1.76 µM). For the same compound, the “Serum Binding human (% of compound bound to serum)” value in the data set with human serum proteins is listed as 94%. Moreover, in data set [2], the “stability of compounds in rat serum” value is “improved stability” and the “Stability in rat serum (% loss)” value is on record as 19%.
In the case of `NCCSCc1cnccc1SC1=C(C(=O)O)N2C(=O)[C@@H](NC(=O)/C(=N\O)c3nc(N)sc3Cl)[C@H]2SC1` [Cmpd 20, (7R)-7-[(Z)-2-(2-amino-5-chlorothiazol-4-yl)-2-(hydroxyimino)acetamido]-3-[3-(2-aminoethylthiomethyl)pyrid-4-ylthio]-3-cephem-4-carboxylic acid], the MIC with S. aureus ATCC 29213 came out at 0.25 µg/mL (≈ 0.415 µM); in data set [1] it was 0.5 µg/mL (≈ 0.83 µM). The “Serum Binding human (% of compound bound to serum)” value in the data set on human serum proteins turned out to be 84%. Further, the “Stability in rat serum (% loss)” value in data set [2] is 70%.
With `NCCSCc1ncccc1SC1=C(C(=O)O)N2C(=O)[C@@H](NC(=O)/C(=N\O)c3nsc(N)n3)[C@H]2SC1` [Cmpd 17, (7R)-7-[(Z)-2-(5-amino-1,2,4-thiadiazol-3-yl)-2-(hydroxyimino)acetamido]-3-[2-(2-aminoethylthiomethyl)pyrid-3-ylthio]-3-cephem-4-carboxylic acid], the MIC in the data set on S. aureus ATCC 29213 was determined as 0.25 µg/mL (≈ 0.44 µM). Moreover, the “Serum Binding human (% of compound bound to serum)” value with human serum proteins was found to be 66%. In data set [2], the “stability of compounds in rat serum” value was “improved stability” and the “Stability in rat serum (% loss)” value turned out to be 2%.
With `N=C(N)NCCSCc1cnccc1SC1=C(C(=O)O)N2C(=O)[C@@H](NC(=O)/C(=N\O)c3nsc(N)n3)[C@H]2SC1` [Cmpd 25, (7R)-7-[(Z)-2-(5-amino-1,2,4-thiadiazol-3-yl)-2-(hydroxyimino)acetamido]-3-[3-(2-guanidinoethylthiomethyl)pyrid-4-ylthio]-3-cephem-4-carboxylic acid], in the data set with S. aureus ATCC 29213, the MIC came to 0.25 µg/mL (≈ 0.409 µM). The MIC in data set [1] turned out to be 1 µg/mL (≈ 1.64 µM). Besides, the “Serum Binding human (% of compound bound to serum)” value in the data set with human serum proteins is 47%. Moreover, in data set [2], the “stability of compounds in rat serum” value is “improved stability” and the “Stability in rat serum (% loss)” value stood at 45%.
In the case of `NCCSCc1cnccc1SC1=C(C(=O)O)N2C(=O)C(NC(=O)/C(=N\O)c3csc(N)n3)C2SC1` (stereo not shown) [Cmpd 19], the results for the MIC (in the data set with S. aureus ATCC 29213; in data set [1]) were 0.5 µg/mL (≈ 0.881 µM) and 2 µg/mL (≈ 3.52 µM), respectively. Besides, the “Serum Binding human (% of compound bound to serum)” value in the data set with human serum proteins worked out at 68%. Moreover, the “Stability in rat serum (% loss)” value in data set [2] came to 26%.
Regarding `NCCSCc1ncccc1SC1=C(C(=O)O)N2C(=O)[C@@H](NC(=O)/C(=N\O)c3nc(N)sc3Cl)[C@H]2SC1` [Cmpd 13, (7R)-7-[(Z)-2-(2-amino-5-chlorothiazol-4-yl)-2-(hydroxyimino)acetamido]-3-[2-(2-aminoethylthiomethyl)pyrid-3-ylthio]-3-cephem-4-carboxylic acid], the results for the minimum inhibitory concentration (MIC) (with S. aureus ATCC 29213; in data set [1]) were 0.25 µg/mL (≈ 0.415 µM) and 0.5 µg/mL (≈ 0.83 µM), respectively. Moreover, in the data set with human serum proteins, the “Serum Binding human (% of compound bound to serum)” value stood at 90%. The “stability of compounds in rat serum” value in data set [2] is recorded as “improved stability”. In data set [2], the “Stability in rat serum (% loss)” value is listed as 9%.
For `NCCSCc1nc(N)sc1SC1=C(C(=O)O)N2C(=O)[C@@H](NC(=O)/C(=N\O)c3nc(N)sc3Cl)[C@H]2SC1` [Cmpd 3, (7R)-7-[(Z)-2-(2-amino-5-chlorothiazol-4-yl)-2-(hydroxyimino)acetamido]-3-[4-(2-aminoethylthiomethyl)-2-amino-1,3-thiazol-5-ylthio]-3-cephem-4-carboxylic acid], the MIC with S. aureus ATCC 29213 turned out to be 0.25 µg/mL (≈ 0.401 µM). Also, in the data set with human serum proteins, the “Serum Binding human (% of compound bound to serum)” value was determined as 88%. Moreover, in data set [2], the “stability of compounds in rat serum” value is on record as “improved stability” and the “Stability in rat serum (% loss)” value was found to be 3%.
`NCCSCc1ccncc1SC1=C(C(=O)O)N2C(=O)[C@@H](NC(=O)/C(=N\O)c3nc(N)sc3Cl)[C@H]2SC1` [Cmpd 21, (7R)-7-[(Z)-2-(2-amino-5-chlorothiazol-4-yl)-2-(hydroxyimino)acetamido]-3-[4-(2-aminoethylthiomethyl)pyrid-3-ylthio]-3-cephem-4-carboxylic acid]: the “Serum Binding human (% of compound bound to serum)” value with human serum proteins worked out at 90%. In addition, in data set [2], the “stability of compounds in rat serum” value is reported as “improved stability” and the “Stability in rat serum (% loss)” value amounted to 3%.
In the case of `NCCSCc1cnccc1SC1=C(C(=O)O)N2C(=O)[C@@H](NC(=O)/C(=N\O)c3nsc(N)n3)[C@H]2SC1` [Cmpd 18, (7R)-7-[(Z)-2-(5-amino-1,2,4-thiadiazol-3-yl)-2-(hydroxyimino)acetamido]-3-[3-(2-aminoethylthiomethyl)pyrid-4-ylthio]-3-cephem-4-carboxylic acid], the minimum inhibitory concentration (MIC) in the data set on S. aureus ATCC 29213 is 0.13 µg/mL (≈ 0.229 µM); in data set [1], 1 µg/mL (≈ 1.76 µM). In addition, the “Serum Binding human (% of compound bound to serum)” value in the data set with human serum proteins was determined as 66%. Moreover, in data set [2], the “Stability in rat serum (% loss)” value is reported as 23%.

Source of the values: patent publication US6723716B1, “7-acylamino-3-heteroarylthio-3-cephem carboxylic acid antibiotics and prodrugs thereof” (Essential Therapeutics, Inc., priority 1999, dated 2004).
